Assay [1] concerns collagen type I synthesis of skin fibroblasts (Detroit 551). Put plainly: Collagen type I synthesis of skin fibroblasts (CICP, Prolagen-C ELISA). Type of assay: cell-based, Human. Particulars: for effect on collagen type I synthesis of skin fibroblasts: Detroit 551, 75 μM ascorbic acid, 48 h, increasing concentrations. As to the method:
Skin fibroblasts (Detroit 551) were seeded in a 96-well plate (3000 cells/well). Twenty-four hours later the cells were incubated for additional 48 h with 75 μM ascorbic acid and increasing concentrations of the tested compounds (induction medium was exchanged after 24 h). Cell medium was collected and the Prolagen-C ELISA kit of “METRA” was used for detection of collagen type I C′ propeptide (CICP) concentration.

In assay [2] the test system is hAoSMC, HUVEC, Detroit 551, 5637, HT1080 and MDA-MB-435S cells. Put plainly: Cell proliferation assay (methylene blue staining) of cultured, actively growing cells. Particulars: all tested cells (hAoSMC, HUVEC, Detroit 551, 5637, HT1080, MDA-MB-435S); increasing concentrations, 72-96 hours after seeding. It is filed as cell-based, Human. An excerpt: The present study sought to compare the effect of each of the trans-halofuginone enantiomers to the racemic mixture on proliferation of cultured, actively growing cells. Human aortic smooth muscle cells (hAoSMC) and Human Umbilical Vein Endothelial Cells (HUVEC) were purchased from Clonetics and grown in Clonetics suitable growth media. Human skin fibroblasts (Detroit 551) and human fibrosarcoma (HT1080) cell lines were purchased from the American Type Culture Collection (ATCC) and grown in MEM supplemented with 10% FCS, 1 mM Sodium pyruvate, 2 mM L-glutamine and 0.2% antibiotic solution (Biological industries, Beit-Haemek, Israel). The human bladder carcinoma (5637) and human breast carcinoma (MDA-MB-435S) cell lines were purchased from the ATCC and grown in DMEM supplemented with 10% FCS and 0.2% antibiotic solution (Biological industries, Beit-Haemek, Israel). Cells were grown in 37° C. and 5% CO2. Cells were seeded in 96-well plates. Twenty-four hours later, increasing concentrations of tested compounds were added to the wells. When the cultures reached sub confluence (72-96 hours after seeding) the cells were fixed with 2.5% glutaraldehyde, washed three times with distilled water, followed by one wash with 0.1 M Boric buffer (pH 8.5). […] The optical density at 620 nm was determined using a micro plate spectrophotometer.

For assay [3], the system named is coccidiosis. Particulars: versus racemic compound; cited from earlier work.

The source of these data is US20110212165A1, “PHARMACEUTICAL COMPOSITIONS OF THE ISOLATED D-ENANTIOMER OF THE QUINAZOLINONE DERIVATIVE HALOFUGINONE” (priority 2005, published 2011).

SMILES strings stand for the structures. “Also recorded” adds a separate entry of the source.

On to `O=C(CC1NCCCC1O)Cn1cnc2cc(Br)c(Cl)cc2c1=O` (single isomer, unassigned; enantiomer 7) [L-enantiomer, 7-bromo-6-chloro-3-[3-(3-hydroxy-2-piperidinyl)-2-oxopropyl]-4(3H)-quinazolinone], for which the “effect on collagen type I synthesis of skin fibroblasts” value in assay [1] is “no effect; also recorded: virtually inactive”. For the same compound, in assay [2], the “effect on cell proliferation” value was “no effect; also recorded: virtually inactive”.
With `O=C(CC1NCCCC1O)Cn1cnc2cc(Br)c(Cl)cc2c1=O` (single isomer, unassigned; enantiomer 7) [D-enantiomer, 7-bromo-6-chloro-3-[3-(3-hydroxy-2-piperidinyl)-2-oxopropyl]-4(3H)-quinazolinone], in assay [1] (listed as D-enantiomer of halofuginone), the “effect on collagen type I synthesis of skin fibroblasts” value is given as “suppressed collagen type I synthesis of skin fibroblasts in a dose dependent manner”. In addition, the “activity in suppressing collagen type I synthesis relative to the racemic mixture” value in assay [1] (Detroit 551, versus racemic mixture of halofuginone, listed as D-enantiomer of halofuginone) is reported as “about two”. The “effect on cell proliferation” value in assay [2] was “suppressed proliferation of all the tested cells in a dose dependent manner”. The “coccidiostatic activity relative to the racemic compound” value in assay [3] is “three”.
